Assay results: patent US20230117470A1, “SUBSTITUTED PYRAZOLE COMPOUNDS AS TOLL RECEPTOR INHIBITORS” (BRISTOL-MYERS SQUIBB COMPANY, priority 2019, published 2023)

How the values were obtained:
Assay type in all cases: cell-based
human TLR9 = molecular target: T1, human TLR9 (Homo sapiens, UniProt Q9NR96); experiment: TLR9 inhibition reporter assay (HEK-Blue cells, SEAP reporter, ODN2006 stimulation); details: HEK-Blue cells overexpressing human TLR9, SEAP reporter, ODN2006 5 nM
T1 construct: host or cells: HEK-Blue cells
T1 sequence (Q9NR96 26-1032): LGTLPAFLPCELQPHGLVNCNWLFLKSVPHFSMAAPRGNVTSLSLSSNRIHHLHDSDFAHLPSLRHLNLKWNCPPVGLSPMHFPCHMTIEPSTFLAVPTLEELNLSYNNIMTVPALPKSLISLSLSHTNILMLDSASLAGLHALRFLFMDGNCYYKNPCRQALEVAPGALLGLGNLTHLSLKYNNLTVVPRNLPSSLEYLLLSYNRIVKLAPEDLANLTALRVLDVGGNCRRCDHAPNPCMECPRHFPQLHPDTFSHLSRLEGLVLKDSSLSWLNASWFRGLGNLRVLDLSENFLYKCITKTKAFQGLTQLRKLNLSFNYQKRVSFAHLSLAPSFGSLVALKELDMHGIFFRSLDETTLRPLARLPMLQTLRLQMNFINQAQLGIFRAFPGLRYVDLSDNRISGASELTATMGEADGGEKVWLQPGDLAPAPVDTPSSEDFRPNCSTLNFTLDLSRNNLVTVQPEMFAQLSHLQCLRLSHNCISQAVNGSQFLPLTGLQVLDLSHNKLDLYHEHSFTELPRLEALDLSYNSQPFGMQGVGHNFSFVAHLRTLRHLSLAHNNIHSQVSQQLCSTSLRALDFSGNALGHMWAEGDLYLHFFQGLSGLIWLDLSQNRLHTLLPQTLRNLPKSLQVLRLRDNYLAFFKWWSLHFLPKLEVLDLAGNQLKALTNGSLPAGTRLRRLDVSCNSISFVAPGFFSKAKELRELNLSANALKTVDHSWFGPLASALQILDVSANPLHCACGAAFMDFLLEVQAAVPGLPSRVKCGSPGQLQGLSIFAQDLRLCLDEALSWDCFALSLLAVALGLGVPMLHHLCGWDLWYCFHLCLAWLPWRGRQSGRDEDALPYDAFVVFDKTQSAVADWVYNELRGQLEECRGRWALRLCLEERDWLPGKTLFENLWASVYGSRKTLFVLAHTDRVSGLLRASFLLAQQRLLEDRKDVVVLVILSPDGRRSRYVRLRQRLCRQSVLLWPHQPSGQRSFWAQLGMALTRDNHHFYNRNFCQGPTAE
Outline: (§1)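 Ligand levels differed by receptor: TLR7 got gardiquimod at 7.5 μM, TLR8 got R848 at 15.9 μM, and TLR9 got ODN2006 at 5 nM, each added after a 30-min room-temperature compound exposure. Incubation lasted 22 h at 37° C before colorimetric SEAP detection.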

human TLR8 = molecular target: T2, human TLR8 (Homo sapiens, UniProt Q9NR97); experiment: TLR8 inhibition reporter assay (HEK-Blue cells, SEAP reporter, R848 stimulation); details: HEK-Blue cells overexpressing human TLR8, SEAP reporter, R848 15.9 μM
T2 construct: host or cells: HEK-Blue cells
T2 sequence (Q9NR97 27-1041): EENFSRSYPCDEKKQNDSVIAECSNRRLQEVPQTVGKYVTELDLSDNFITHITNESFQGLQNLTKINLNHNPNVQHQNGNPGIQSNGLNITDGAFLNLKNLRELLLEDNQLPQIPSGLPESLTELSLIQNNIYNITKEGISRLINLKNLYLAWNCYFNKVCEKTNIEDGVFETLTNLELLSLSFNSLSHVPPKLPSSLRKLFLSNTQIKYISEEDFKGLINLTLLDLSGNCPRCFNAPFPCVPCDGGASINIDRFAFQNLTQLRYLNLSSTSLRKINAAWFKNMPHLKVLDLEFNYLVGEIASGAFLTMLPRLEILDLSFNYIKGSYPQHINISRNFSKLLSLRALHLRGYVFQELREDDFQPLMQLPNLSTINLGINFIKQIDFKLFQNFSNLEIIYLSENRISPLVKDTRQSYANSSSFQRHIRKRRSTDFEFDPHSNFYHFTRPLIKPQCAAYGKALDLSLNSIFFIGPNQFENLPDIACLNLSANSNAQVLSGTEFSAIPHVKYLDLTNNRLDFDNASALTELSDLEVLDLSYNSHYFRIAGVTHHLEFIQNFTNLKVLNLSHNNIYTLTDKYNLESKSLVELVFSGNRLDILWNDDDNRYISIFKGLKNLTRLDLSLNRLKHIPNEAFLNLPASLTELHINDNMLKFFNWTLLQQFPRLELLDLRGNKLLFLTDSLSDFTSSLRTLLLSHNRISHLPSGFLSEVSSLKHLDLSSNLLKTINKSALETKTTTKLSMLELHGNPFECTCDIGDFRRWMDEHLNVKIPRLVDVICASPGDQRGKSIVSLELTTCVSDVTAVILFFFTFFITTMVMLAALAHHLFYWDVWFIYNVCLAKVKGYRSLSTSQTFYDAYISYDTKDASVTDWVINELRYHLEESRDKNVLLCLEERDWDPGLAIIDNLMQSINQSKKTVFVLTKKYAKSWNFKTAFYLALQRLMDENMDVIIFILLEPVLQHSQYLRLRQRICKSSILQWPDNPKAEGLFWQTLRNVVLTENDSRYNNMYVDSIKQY
Outline: as §1

human TLR7 = molecular target: T3, human TLR7 (Homo sapiens, UniProt Q9NYK1); experiment: TLR7 inhibition reporter assay (HEK-Blue cells, SEAP reporter, gardiquimod stimulation); details: HEK-Blue cells overexpressing human TLR7, SEAP reporter, gardiquimod 7.5 μM
T3 construct: host or cells: HEK-Blue cells
T3 sequence (Q9NYK1 27-1049): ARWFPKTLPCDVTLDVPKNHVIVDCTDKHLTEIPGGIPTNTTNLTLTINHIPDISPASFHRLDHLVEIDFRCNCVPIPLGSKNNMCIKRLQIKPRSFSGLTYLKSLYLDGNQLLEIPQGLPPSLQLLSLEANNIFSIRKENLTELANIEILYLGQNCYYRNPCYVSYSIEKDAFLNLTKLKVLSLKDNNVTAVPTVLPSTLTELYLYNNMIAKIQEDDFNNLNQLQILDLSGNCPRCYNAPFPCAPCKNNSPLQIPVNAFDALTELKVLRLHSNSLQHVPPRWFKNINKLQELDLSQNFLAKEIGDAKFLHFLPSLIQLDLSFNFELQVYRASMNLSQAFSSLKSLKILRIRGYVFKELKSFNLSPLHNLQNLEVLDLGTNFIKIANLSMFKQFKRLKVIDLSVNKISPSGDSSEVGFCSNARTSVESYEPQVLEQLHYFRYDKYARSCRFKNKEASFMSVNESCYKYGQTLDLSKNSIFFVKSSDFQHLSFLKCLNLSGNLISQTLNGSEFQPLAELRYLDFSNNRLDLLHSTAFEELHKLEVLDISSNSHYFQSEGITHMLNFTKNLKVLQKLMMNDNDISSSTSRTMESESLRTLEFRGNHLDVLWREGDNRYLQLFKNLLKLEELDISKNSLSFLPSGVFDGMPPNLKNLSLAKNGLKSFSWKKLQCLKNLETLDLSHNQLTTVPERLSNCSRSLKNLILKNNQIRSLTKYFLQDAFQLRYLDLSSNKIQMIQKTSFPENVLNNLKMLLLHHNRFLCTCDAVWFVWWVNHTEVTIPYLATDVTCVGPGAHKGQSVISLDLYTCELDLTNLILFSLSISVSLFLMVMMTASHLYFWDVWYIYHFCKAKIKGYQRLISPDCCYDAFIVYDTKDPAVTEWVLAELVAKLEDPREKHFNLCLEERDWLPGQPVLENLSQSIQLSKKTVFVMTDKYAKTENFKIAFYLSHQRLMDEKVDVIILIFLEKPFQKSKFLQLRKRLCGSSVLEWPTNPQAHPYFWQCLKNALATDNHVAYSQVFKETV
Outline: as §1

Row | Compound | IC50 (human TLR9) | IC50 (human TLR8) | IC50 (human TLR7)
1 | COc1cc(-c2[nH]nc(-c3ccc(C4CCN(C)CC4)cn3)c2C(C)C)cn2ncnc12 [Example 348] | > 50000 nM | 22.4 nM | 19.1 nM
2 | COCCN1CCc2cc(-c3n[nH]c(-c4cc(C)c5ncnn5c4)c3C(C)C)ccc2C1 [Example 263, 6-(4-isopropyl-5-(8-methyl-[1,2,4]triazolo[1,5-a]pyridin-6-yl)-1H-pyrazol-3-yl)-2-(2-methoxyethyl)-1,2,3,4-tetrahydroisoquinoline] | 18100 nM | 4.48 nM | 4.74 nM
3 | Cc1cc(-c2[nH]nc(-c3ncc4c(n3)CNC4)c2C(C)C)cn2ncnc12 [Example 216] | 6520 nM | 1.02 nM | 0.72 nM
4 | CCCN1CCC(c2ccc(-c3n[nH]c(-c4cc(OC)c5ncnn5c4)c3C(C)C)nc2)CC1 [Example 349] | > 50000 nM | 1.85 nM | 91 nM
5 | Cc1cc(-c2[nH]nc(-c3cccc(NC(C)C)c3)c2C(C)C)cn2ncnc12 [Example 242] | > 50000 nM | 16.1 nM | 47.1 nM
6 | Cc1cc(-c2[nH]nc(-c3ccc4c(c3)CCN(C(=O)CN(C)C)C4)c2C(C)C)cn2ncnc12 [Example 268, 2-(dimethylamino)-1-(6-(4-isopropyl-5-(8-methyl-[1,2,4]triazolo[1,5-a]pyridin-6-yl)-1H-pyrazol-3-yl)-3,4-dihydroisoquinolin-2(1H)-yl)ethan-1-one] | > 50000 nM | 65.1 nM | 41.1 nM
7 | Cc1cc(-c2[nH]nc(-c3ccc(C4CCN(C)CC4)nn3)c2C(C)C)cn2ncnc12 [Example 357] | 38100 nM | > 3130 nM | 1280 nM
8 | COc1cc(-c2[nH]nc(-c3ccc4c(c3)CCNC4)c2C(C)C)cn2ncnc12 [Example 234] | > 50000 nM | 59.8 nM | 15.1 nM
9 | COc1cc(-c2[nH]nc(-c3ccc(C4CN(C5COC5)C4)cc3)c2C(C)C)cn2ncnc12 [Example 332] | 10200 nM | 1.91 nM | 16.9 nM
10 | Cc1cc(-c2[nH]nc(-c3ccc(N4CC(NC(C)C)C4)cc3)c2C(C)C)cn2ncnc12 [Example 409] | 9760 nM | 345 nM | 48.2 nM

Next, values leading:

Row | IC50 (human TLR9) | IC50 (human TLR8) | IC50 (human TLR7) | Compound
11 | 12600 nM | 0.64 nM | 2.27 nM | Cc1cc(-c2[nH]nc(C3CCN(C)CC3)c2C(C)C)cn2ncnc12 [Example 206, 6-(4-isopropyl-3-(1-methylpiperidin-4-yl)-1H-pyrazol-5-yl)-8-methyl-[1,2,4]triazolo[1,5-a]pyridine]
12 | 7630 nM | 4.45 nM | 1.97 nM | Cc1cc(-c2[nH]nc(C(=O)NC3CCN(C(C)C)CC3)c2CC(F)(F)F)cn2ncnc12 [Example 193]
13 | 17500 nM | 26.3 nM | 4.96 nM | Cc1cc(-c2[nH]nc(C(=O)NCC3CN(C)CCO3)c2C(C)C)cn2ncnc12 (stereo not drawn) [Example 139]
14 | 23400 nM | 60 nM | 49.2 nM | Cc1cc(-c2[nH]nc(C(=O)N[C@H]3CC[C@@H](NCC4(C)COC4)CC3)c2C(C)C)cn2ncnc12 [Example 151]
15 | 3880 nM | 1.91 nM | 3.11 nM | Cc1cc(-c2[nH]nc(C(=O)N[C@H]3CC[C@H](NC4CCOCC4)CC3)c2C(C)C)cn2ncnc12 [Example 116]
16 | 23800 nM | 1.24 nM | 1.8 nM | Cc1cc(-c2[nH]nc(C3CCN(C(=O)CCNC(C)C)CC3)c2C(C)C)cn2ncnc12 [compound 210]
17 | > 50000 nM | 41.6 nM | 60.3 nM | Cc1cc(-c2[nH]nc(C(=O)NCC3CN(CC(C)(C)C)CCO3)c2C(C)C)cn2ncnc12 (stereo not drawn) [Example 145]
18 | 11100 nM | 1.13 nM | 0.8 nM | Cc1cc(-c2[nH]nc(C(=O)N[C@H]3CC[C@@H](N(CCC(C)(C)C)CCC(C)(C)C)CC3)c2C(C)C)cn2ncnc12 [Example 90]
19 | 18500 nM | 9.31 nM | 3.78 nM | COc1cc(-c2[nH]nc(C(=O)NC3CCN(C)CC3)c2C(C)C)cn2ncnc12 [Example 11]
20 | 6910 nM | 17.5 nM | 2.66 nM | Cc1cc(-c2[nH]nc(C(=O)N[C@H]3CC[C@@H](NC(C)C)CC3)c2C(C)C)cn2ncnc12 [Example 85]
21 | > 50000 nM | 15.9 nM | 3.41 nM | Cc1cc(-c2[nH]nc(C(=O)NC3CCC(O)CC3)c2C(C)C)cn2ncnc12 (stereo not drawn) [Example 32]
22 | 26400 nM | 0.93 nM | 7.99 nM | Cc1cc(-c2[nH]nc(C3CCC(N(C)C(=O)C4CN(C(C)C)C4)CC3)c2C(C)C)cn2ncnc12 (single isomer, unassigned) [Example 303]
23 | 8720 nM | 4.25 nM | 10.4 nM | Cc1cc(-c2[nH]nc(CNC3CCNCC3)c2C(C)C)cn2ncnc12 [Example 187]
24 | 3430 nM | 8.27 nM | 8.08 nM | Cc1cc(-c2[nH]nc(C(=O)N(C)Cc3cccnc3)c2C(C)C)cn2ncnc12 [Example 17]
